US7524860B2, “Antibacterial agents” (Pfizer Inc., priority 2004, dated 2009)
Values after ≈ are worked out from the molar mass of the structure shown. Where two headings read alike, the source gives them in different places.

Tested on: Neisseria gonorrhoeae, GC525 (NG-2888)
Assay: in-vitro antibacterial activity, microbroth dilution MIC susceptibility testing
Assay type: cell-based
Design: unit: ug/mL
Settings: microbroth dilution in gonococcal broth, 20-24 hours at 35 C, lowest concentration preventing visible growth
In short: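 Broth microdilution in gonococcal broth, inoculum ~5×10^5 cfu/mL, 20-24 h at 35 C in humidified CO2; compounds from 2 mg/mL DMSO stocks over 64-0.06 and 1-0.001 ug/mL two-fold series. MIC is the lowest concentration preventing visible growth, read visually; duplicates differing one well give the lower value, two wells the middle value.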

[1] = Neisseria gonorrhoeae, read-out: MIC

MIC [1] | MIC | Structure (SMILES)
> 64 µg/mL |  | CCNC(=O)Nc1nc2cc(-c3cccnc3)cc(C(=O)NCc3ccc(OC)c(OC)c3)n2n1 [Example 106, 2-(3-Ethyl-ureido)-7-pyridin-3-yl-[1,2,4]triazolo[1,5-a]pyridine-5-carboxylic acid 3,4-dimethoxy-benzylamide]
> 64 µg/mL |  | CCNC(=O)Nc1nc2cc(-c3cccnc3)cc(C(=O)NCCCN)n2n1 [Example 107, 2-(3-Ethyl-ureido)-7-pyridin-3-yl-[1,2,4]triazolo[1,5-a]pyridine-5-carboxylic acid (3-amino-propyl)-amide]
2 µg/mL (≈ 5.68 µM) |  | CCCC(=O)c1cc(-c2cccnc2)cc2nc(NC(=O)NCC)nn12 [Example 108, 1-(5-Butyryl-7-pyridin-3-yl-[1,2,4]triazolo[1,5-a]pyridine-2-yl)-3-ethyl-urea]
2 µg/mL (≈ 5.71 µM) |  | CCNC(=O)Nc1nc2cc(-c3cccnc3)cc(C(=O)C3CC3)n2n1 [Example 109, 1-(5-Cyclopropanecarbonyl-7-pyridin-3-yl-[1,2,4]triazolo[1,5-a]pyridine-2-yl)-3-ethyl-urea]
4 µg/mL (≈ 9.99 µM) |  | CCNC(=O)Nc1nc2cc(-c3cccnc3)cc(C(=O)Cc3ccccc3)n2n1 [Example 110, 1-Ethyl-3-(5-phenylacetyl-7-pyridin-3-yl-[1,2,4]triazolo[1,5-a]pyridine-2-yl)-urea]
8 µg/mL (≈ 20.7 µM) |  | CCNC(=O)Nc1nc2cc(-c3cccnc3)cc(C(=O)c3ccccc3)n2n1 [Example 111, 1-(5-Benzoyl-7-pyridin-3-yl-[1,2,4]triazolo[1,5-a]pyridine-2-yl)-3-ethyl-urea]
8 µg/mL (≈ 21 µM) |  | CCCC(=NOC)c1cc(-c2cccnc2)cc2nc(NC(=O)NCC)nn12 [Example 112, 1-Ethyl-3-[5-(1-methoxyimino-butyl)-7-pyridin-3-yl-[1,2,4]triazolo[1,5-a]pyridine-2-yl]-urea]
64 µg/mL (≈ 176 µM) |  | CCNC(=O)Nc1cn2c(CN3CCCC3)cc(-c3cccnc3)cc2n1 [Example 113, 1-Ethyl-3-(7-pyridin-3-yl-5-pyrrolidin-1-ylmethyl-imidazo[1,2-a]pyridin-2-yl)-urea]
 | >64.0 µg/mL | CCOC(=O)c1cc(-c2cnc(N(C)C)nc2)cc2nc(NC(=O)NC(C)C)cn12 [Example 116, 7-(2-Dimethylamino-pyrimidin-5-yl)-2-(3-isopropyl-ureido)-imidazo[1,2-a]pyridine-5-carboxylic acid ethyl ester]
 | >64.0 µg/mL | CCNC(=O)Nc1cn2c(C(=O)OCC)cc(-c3ccc(OC)cc3)cc2n1 [Example 118, 2-(3-Ethyl-ureido)-7-(4-methoxy-phenyl)-imidazo[1,2-a]pyridine-5-carboxylic acid ethyl ester]
64 µg/mL (≈ 172 µM) |  | CCNC(=O)Nc1nc2cc(N3CCCC3)cc(C(=O)N3CCCC3)n2n1 [Example 121, 1-Ethyl-3-[5-(pyrrolidine-1-carbonyl)-7-pyrrolidin-1-yl-[1,2,4]triazolo[1,5-a]pyridin-2-yl]-urea]
0.06 µg/mL (≈ 0.152 µM) |  | CCNC(=O)Nc1nc2cc(-c3cccnc3)cc(-c3nc(CC)cs3)n2n1 [Example 122, 1-Ethyl-3-[5-(4-ethyl-thiazol-2-yl)-7-pyridin-3-yl-[1,2,4]triazolo[1,5-a]pyridin-2-yl]-urea]
> 64 µg/mL |  | CCNC(=O)Nc1nc2cc(-c3cccnc3)cc(-c3cnc(CC)s3)n2n1 [Example 123, 1-Ethyl-3-[5-(2-ethyl-thiazol-5-yl)-7-pyridin-3-yl-[1,2,4]triazolo[1,5-a]pyridin-2-yl]-urea]
 | 64.0 µg/mL (≈ 163 µM) | CCNC(=O)Nc1nc2cc(-c3cccnc3)cc(-c3cnc(CC)s3)n2n1 [Example 124, 1-ethyl-3-[5-(2-ethyl-thiazol-5-yl)-7-pyridin-3-yl-[1,2,4]triazolo[1,5-a]pyridin-2-yl]-urea]
0.06 µg/mL (≈ 0.164 µM) |  | CCNC(=O)Nc1nc2cc(-c3cccnc3)cc(-c3cncs3)n2n1 [Example 125, 1-Ethyl-3-[5-(thiazol-5-yl)-7-pyridin-3-yl-[1,2,4]triazolo[1,5-a]pyridin-2-yl]-urea]
 | 16.0 µg/mL (≈ 44.5 µM) | CCNC(=O)Nc1nc2cc(-c3cccnc3)cc(-c3cccnc3)n2n1 [Example 126, 1-(5,7-Di-pyridin-3-yl-[2,4]triazolo[1,5-a]pyridin-2-yl)-3-ethyl-urea]
32 µg/mL (≈ 89 µM) |  | CCNC(=O)Nc1nc2cc(-c3cccnc3)cc(-c3ccccn3)n2n1 [Example 127, 1-Ethyl-3-(5-pyridin-2-yl-7-pyridin-3-yl-[1,2,4]triazolo[1,5-a]pyridin-2-yl)-urea]
> 64 µg/mL |  | CCNC(=O)Nc1nc2cc(-c3cccnc3)cc(-c3ncccn3)n2n1 [Example 128, 1-Ethyl-3-(7-pyridin-3-yl-5-pyrimidin-2-yl-[1,2,4]triazolo[1,5-a]pyridin-2-yl)-urea]
1 µg/mL (≈ 2.75 µM) |  | CCNC(=O)Nc1nc2cc(-c3cccnc3)cc(-c3cnc(C)o3)n2n1 [Example 129, N-Ethyl-N′-[5-(2-methyl-1,3-oxazol-5-yl)-7-pyridin-3-yl[1,2,4]triazolo[1,5-a]pyridin-2-yl]urea]
32 µg/mL (≈ 84.1 µM) |  | CCNC(=O)Nc1nc2cc(-c3cccnc3)cc(N3CCN(C)CC3)n2n1 [Example 131, 1-Ethyl-3-[5-(4-methyl-piperazin-1-yl)-7-pyridin-3-yl-[1,2,4]triazolo[1,5-a]pyridin-2-yl]-urea]
2 µg/mL (≈ 5.27 µM) |  | CCNC(=O)Nc1nc2cc(-c3cccnc3)cc(-c3cnc(C)s3)n2n1 [Example 132, 1-Ethyl-3-[5-(2-methyl-thiazol-5-yl)-7-pyridin-3-yl-[1,2,4]triazolo[1,5-a]pyridin-2-yl]-urea]
8 µg/mL (≈ 21.3 µM) |  | CCNC(=O)Nc1nc2cc(-c3cccnc3)cc(-c3cnc(C)n3C)n2n1 [Example 135, N-[5-(1,2-Dimethyl-1H-imidazol-5-yl)-7-pyridin-3-yl[1,2,4]triazolo[1,5-a]pyridin-2-yl]-N′-ethylurea]
4 µg/mL (≈ 11 µM) |  | CCNC(=O)Nc1nc2cc(-c3cccnc3)cc(-c3cncn3C)n2n1 [Example 136, N-ethyl-N′-[5-(1-methyl-1H-imidazol-5-yl]-7-pyridin-3-yl[1,2,4]triazolo[1,5-a]pyridin-2-yl]urea]
32 µg/mL (≈ 81.3 µM) |  | CCNC(=O)Nc1nc2cc(-c3cccnc3)cc(N(C)C3CCCCC3)n2n1 [Example 137, N-[5-[Cyclohexyl(methyl)amino]-7-pyridin-3-yl[1,2,4]triazolo[1,5-a]pyridin-2-yl]-N′-ethylurea]
0.5 µg/mL (≈ 1.32 µM) |  | CCNC(=O)Nc1nc2cc(-c3cccnc3)cc(NC3CCCCC3)n2n1 [Example 138, 1-(5-Cyclohexylamino-7-pyridin-3-yl-[1,2,4]triazolo[1,5-a]pyridin-2-yl)-3-ethyl-urea]
1 µg/mL (≈ 2.65 µM) |  | CCNC(=O)Nc1nc2cc(-c3cccnc3)cc(-c3cnc(CC)o3)n2n1 [Example 139, N-Ethyl-N′-[5-(2-ethyl-1,3-oxazol-5-yl)-7-pyridin-3-yl[1,2,4]triazolo[1,5-a]pyridin-2-yl]urea]
64 µg/mL (≈ 157 µM) |  | CCNC(=O)Nc1nc2cc(-c3cccnc3)cc(-c3cnc(C(C)C)s3)n2n1 [Example 140, 1-Ethyl-3-[5-(2-i-propyl-thiazol-5-yl)-7-pyridin-3-yl-[1,2,4]triazolo[1,5-a]pyridin-2-yl]-urea]
16 µg/mL (≈ 41.1 µM) |  | CCNC(=O)Nc1nc2cc(-c3cccnc3)cc(-c3ccc(OC)nc3)n2n1 [Example 142, N-Ethyl-N′-[5-(6-methoxypyridin-3-yl)-7-pyridin-3-yl[1,2,4]triazolo[1,5-a]pyridin-2-yl]urea]
32 µg/mL (≈ 78.1 µM) |  | CCNC(=O)Nc1nc2cc(-c3cccnc3)cc(OCCN3CCCCC3)n2n1 [Example 144, 1-Ethyl-3-[5-(2-piperidin-1-yl-ethoxy)-7-pyridin-3-yl-[1,2,4]triazolo[1,5-a]pyridin-2-yl]-urea]
